The text below walks through data of patent publication US6881741B2 (ViroChem Pharma Inc., priority 2001, dated 2005).

The target of this experiment is recombinant HCV NS5B (HCV RNA-dependent RNA polymerase) (Hepatitis C virus genotype 1b, UniProt P26663). Description: biochemical. The following applies: related polymerase activity (Example 27 list); read-out: IC50.
Chain of recombinant HCV NS5B (HCV RNA-dependent RNA polymerase) (P26663 2420-3010 limits assumed): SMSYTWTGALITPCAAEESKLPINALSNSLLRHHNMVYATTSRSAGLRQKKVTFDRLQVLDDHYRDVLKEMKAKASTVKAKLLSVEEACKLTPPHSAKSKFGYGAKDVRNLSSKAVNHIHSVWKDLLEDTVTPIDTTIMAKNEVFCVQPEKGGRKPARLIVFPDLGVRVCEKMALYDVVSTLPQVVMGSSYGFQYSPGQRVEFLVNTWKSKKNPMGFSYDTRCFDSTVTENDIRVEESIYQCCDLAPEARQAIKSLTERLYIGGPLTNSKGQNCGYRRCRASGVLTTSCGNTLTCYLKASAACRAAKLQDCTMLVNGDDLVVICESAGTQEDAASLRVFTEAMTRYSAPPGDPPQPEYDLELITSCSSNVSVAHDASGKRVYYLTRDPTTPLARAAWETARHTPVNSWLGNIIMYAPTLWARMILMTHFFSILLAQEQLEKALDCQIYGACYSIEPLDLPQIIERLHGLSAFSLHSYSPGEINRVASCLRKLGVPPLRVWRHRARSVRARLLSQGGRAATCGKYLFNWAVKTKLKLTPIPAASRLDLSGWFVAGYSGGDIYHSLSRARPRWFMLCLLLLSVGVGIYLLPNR

A word on the IC50: it is the concentration that inhibits the measured activity by half. Regarding `O=C(Nc1cc(-c2ccccc2)sc1C(=O)O)c1ccc(Cl)cc1` [Compound 72, 3-(4-CHLORO-BENZOYLAMINO)-5-PHENYL-THIOPHENE-2-CARBOXYLIC ACID], the IC50 lay within 5 to 20 µM.

Take `CN(C(=O)c1ccc(Cl)cc1)c1cc(-c2ccccc2)sc1C(=O)O` [Compound 73, 3-[(4-CHLORO-BENZOYL)-METHYL-AMINO]-5-PHENYL-THIOPHENE-2-CARBOXYLIC ACID]: the IC50 was below 5 µM.

`O=C(Nc1cc(-c2ccccc2)sc1C(=O)O)c1cccs1` [Compound 74, 5-PHENYL-3-[(THIOPHENE-2-CARBONYL)-AMINO]-THIOPHENE-2-CARBOXYLIC ACID]: the half-inhibitory concentration (IC50) fell in the range of 5 to 20 µM.

Take `CN(C(=O)c1cccs1)c1cc(-c2ccccc2)sc1C(=O)O` [Compound 75, 3-(METHYL-(THIOPHENE-2-CARBONYL)-AMINO]-5-PHENYL-THIOPHENE-2-CARBOXYLIC ACID]: the IC50 is 5 to 20 µM.

With `O=C(O)c1sc(-c2ccccc2)cc1NS(=O)(=O)c1ccccc1Br` [Compound 76, 3-(2-BROMO-BENZENESULFONYLAMINO)-5-PHENYL-THIOPHENE-2-CARBOXYLIC ACID], the IC50 is below 5 µM.

`O=C(Nc1cc(-c2ccccc2)sc1C(=O)O)c1ccc(F)cc1F` [Compound 77, 3-(2,4-DIFLUORO-BENZOYLAMINO)-5-PHENYL-THIOPHENE-2-CARBOXYLIC ACID]: the IC50 is above 20 µM.

`CN(C(=O)c1ccc(F)cc1F)c1cc(-c2ccccc2)sc1C(=O)O` [Compound 78, 3-[(2,4-DIFLUORO-BENZOYL)-METHYL-AMINO]-5-PHENYL-THIOPHENE-2-CARBOXYLIC ACID]: the IC50 was 5 to 20 µM.

Take `Cc1ccccc1S(=O)(=O)Nc1cc(C#C[Si](C)(C)C)sc1C(=O)O` [Compound 79]: the IC50 was below 5 µM.

With `C#Cc1cc(NS(=O)(=O)c2ccccc2C)c(C(=O)O)s1` [Compound 80, 5-ETHYNYL-3-(TOLUENE-2-SULFONYLAMINO)-THIOPHENE-2-CARBOXYLIC ACID], the IC50 fell in the range of 5 to 20 µM.

Consider `Cc1ccccc1S(=O)(=O)Nc1cc(-c2cccc(OC(F)(F)F)c2)sc1C(=O)O` [Compound 81, 3-(TOLUENE-2-SULFONYLAMINO)-5-(3-TRIFLUOROMETHOXY-PHENYL)-THIOPHENE-2-CARBOXYLIC ACID], for which the IC50 lay in the range of 5 to 20 µM.

In the case of `Cc1ccccc1S(=O)(=O)Nc1cc(C(=O)c2ccccc2)sc1C(=O)O` [Compound 82, 5-BENZOYL-3-(TOLUENE-2-SULFONYLAMINO)-THIOPHENE-2-CARBOXYLIC ACID], the IC50 fell in the range of 5 to 20 µM.

For `Cc1ccccc1S(=O)(=O)Nc1cc(-c2ccc(C#N)cc2)sc1C(=O)O` [Compound 83, 5-(4-CYANO-PHENYL)-3-(TOLUENE-2-SULFONYLAMINO)-THIOPHENE-2-CARBOXYLIC ACID], the IC50 was below 5 µM.

As to `Cc1ccccc1S(=O)(=O)Nc1cc(-c2ccc(Cl)c(Cl)c2)sc1C(=O)O` [Compound 85, 5-(3,4-DICHLORO-PHENYL)-3-(TOLUENE-2-SULFONYLAMINO)-THIOPHENE-2-CARBOXYLIC ACID], the IC50 fell in the range of 5 to 20 µM.

Turning to `Cc1ccccc1S(=O)(=O)Nc1cc(-c2ccncc2)sc1C(=O)O` [Compound 86, 5-PYRIDIN-4-YL-3-(TOLUENE-2-SULFONYLAMINO)-THIOPHENE-2-CARBOXYLIC ACID], the IC50 is below 5 µM.

Regarding `Cc1ccccc1S(=O)(=O)Nc1cc(-c2cccnc2)sc1C(=O)O` [Compound 87, 5-PYRIDIN-3-YL-3-(TOLUENE-2-SULFONYLAMINO)-THIOPHENE-2-CARBOXYLIC ACID], the IC50 is below 5 µM.

Consider `Cc1ccccc1S(=O)(=O)Nc1cc(-c2ccc(C(F)(F)F)cc2)sc1C(=O)O` [Compound 88, 3-(TOLUENE-2-SULFONYLAMINO)-5-(4-TRIFLUOROMETHYL-PHENYL)-THIOPHENE-2-CARBOXYLIC ACID], for which the IC50 was below 5 µM.

In the case of `Cc1ccccc1S(=O)(=O)Nc1cc(-c2ccc(S(C)(=O)=O)cc2)sc1C(=O)O` [Compound 89, 5-(4-METHANESULFONYL-PHENYL)-3-(TOLUENE-2-SULFONYLAMINO)-THIOPHENE-2-CARBOXYLIC ACID], the IC50 is below 5 µM.

In the case of `CC(=O)Nc1cccc(-c2cc(NS(=O)(=O)c3ccccc3C)c(C(=O)O)s2)c1` [Compound 90, 5-(3-ACETYLAMINO-PHENYL)-3-(TOLUENE-2-SULFONYLAMINO)-THIOPHENE-2-CARBOXYLIC ACID], the IC50 lay within 5 to 20 µM.

In the case of `Cc1ccccc1S(=O)(=O)Nc1cc(-c2ccc(F)c(Cl)c2)sc1C(=O)O` [Compound 91, 5-(3-CHLORO-4-FLUORO-PHENYL)-3-(TOLUENE-2-SULFONYLAMINO)-THIOPHENE-2-CARBOXYLIC ACID], the IC50 was 5 to 20 µM.

Take `Cc1ccc(C(=O)Nc2cc(-c3ccccc3)sc2C(=O)O)cc1` [Compound 92, 3-(4-METHYL-BENZOYLAMINO)-5-PHENYL-THIOPHENE-2-CARBOXYLIC ACID]: the half-inhibitory concentration (IC50) is 5 to 20 µM.

Turning to `Cc1ccc(C(=O)N(C)c2cc(-c3ccccc3)sc2C(=O)O)cc1` [Compound 93, 3-[METHYL-(4-METHYL-BENZOYL)-AMINO]-5-PHENYL-THIOPHENE-2-CARBOXYLIC ACID], the IC50 is below 5 µM.

`Cc1noc(C)c1S(=O)(=O)Nc1cc(-c2ccccc2)sc1C(=O)O` [Compound 94, 3-(3,5-DIMETHYL-ISOXAZOLE-4-SULFONYLAMINO)-5-PHENYL-THIOPHENE-2-CARBOXYLIC ACID]: the IC50 was in the range of 5 to 20 µM.

In the case of `CN(C(=O)c1ccccc1Cl)c1cc(-c2ccccc2)sc1C(=O)O` [Compound 95, 3-[(2-CHLORO-BENZOYL)-METHYL-AMINO]-5-PHENYL-THIOPHENE-2-CARBOXYLIC ACID], the IC50 lay in the range of 5 to 20 µM.

For `Cc1ccccc1C(=O)Nc1cc(-c2ccccc2)sc1C(=O)O` [Compound 96, 3-(2-METHYL-BENZOYLAMINO)-5-PHENYL-THIOPHENE-2-CARBOXYLIC ACID], the IC50 was 5 to 20 µM.

For `Cc1ccccc1C(=O)N(C)c1cc(-c2ccccc2)sc1C(=O)O` [Compound 97, 3-[METHYL-(2-METHYL-BENZOYL)-AMINO]-5-PHENYL-THIOPHENE-2-CARBOXYLIC ACID], the IC50 is above 20 µM.

Consider `O=C(O)c1sc(-c2ccccc2)cc1NS(=O)(=O)c1ccc(C(F)(F)F)cn1` [Compound 98, 5-PHENYL-3-(5-TRIFLUOROMETHYL-PYRIDINE-2-SULFONYLAMINO)-THIOPHENE-2-CARBOXYLIC ACID], for which the IC50 lay within 5 to 20 µM.

As to `Cc1ccc(C)c(S(=O)(=O)Nc2cc(-c3ccc([N+](=O)[O-])cc3)sc2C(=O)O)c1` [Compound 100, 3-(2,5-DIMETHYL-BENZENESULFONYLAMINO)-5-(4-NITRO-PHENYL)-THIOPHENE-2-CARBOXYLIC ACID], the IC50 was below 5 µM.

In the case of `Cc1ccccc1S(=O)(=O)Nc1cc(-c2ccccc2F)sc1C(=O)O` [Compound 101, 5-(2-FLUORO-PHENYL)-3-(TOLUENE-2-SULFONYLAMINO)-THIOPHENE-2-CARBOXYLIC ACID], the IC50 was below 5 µM.

Regarding `Cc1ccccc1S(=O)(=O)Nc1cc(-c2ccccc2C#N)sc1C(=O)O` [Compound 102, 5-(2-CYANO-PHENYL)-3-(TOLUENE-2-SULFONYLAMINO)-THIOPHENE-2-CARBOXYLIC ACID], the IC50 was in the range of 5 to 20 µM.

As to `CCOC(=O)c1ccccc1-c1cc(NS(=O)(=O)c2ccccc2C)c(C(=O)O)s1` [Compound 103, 5-(2-ETHOXYCARBONYL-PHENYL)-3-(TOLUENE-2-SULFONYLAMINO)-THIOPHENE-2-CARBOXYLIC ACID], the IC50 lay in the range of 5 to 20 µM.

For the compound `COc1ccccc1-c1cc(NS(=O)(=O)c2ccccc2C)c(C(=O)O)s1` [Compound 104, 5-(2-METHOXY-PHENYL)-3-(TOLUENE-2-SULFONYLAMINO)-THIOPHENE-2-CARBOXYLIC ACID], the IC50 lay in the range of 5 to 20 µM.

Regarding `Cc1ccccc1S(=O)(=O)Nc1cc(-c2sccc2C)sc1C(=O)O` [Compound 105, 3′-METHYL-4-(TOLUENE-2-SULFONYLAMINO)-[2,2′]BITHIOPHENYL-5-CARBOXYLIC ACID], the IC50 lay within 5 to 20 µM.

On to `Cc1ccccc1S(=O)(=O)Nc1cc(-c2ccccc2C(F)(F)F)sc1C(=O)O` [Compound 106, 3-(TOLUENE-2-SULFONYLAMINO)-5-(2-TRIFLUOROMETHYL-PHENYL)-THIOPHENE-2-CARBOXYLIC ACID], for which the IC50 was 5 to 20 µM.

On to `Cc1ccc(C)c(S(=O)(=O)Nc2cc(-c3ccc(F)cc3)sc2C(=O)O)c1` [Compound 107, 3-(2,5-DIMETHYL-BENZENESULFONYLAMINO)-5-(4-FLUORO-PHENYL)-THIOPHENE-2-CARBOXYLIC ACID], for which the IC50 was below 5 µM.

`Cc1ccccc1S(=O)(=O)Nc1cc(/C=C/c2ccccc2)sc1C(=O)O` [Compound 108, 5-STYRYL-3-(TOLUENE-2-SULFONYLAMINO)-THIOPHENE-2-CARBOXYLIC ACID]: the IC50 is below 5 µM.

Regarding `O=C(O)c1sc(-c2ccc([N+](=O)[O-])cc2)cc1NS(=O)(=O)c1ccc(F)cc1F` [Compound 109, 3-(2,4-DIFLUORO-BENZENESULFONYLAMINO)-5-(4-NITRO-PHENYL)-THIOPHENE-2-CARBOXYLIC ACID], the IC50 is below 5 µM.

Take `O=C(O)c1sc(-c2ccc(F)cc2)cc1NS(=O)(=O)c1ccc(F)cc1F` [Compound 110, 3-(2,4-DIFLUORO-BENZENESULFONYLAMINO)-5-(4-FLUORO-PHENYL)-THIOPHENE-2-CARBOXYLIC ACID]: the IC50 is below 5 µM.

In the case of `O=C(O)c1sc(-c2ccccc2)cc1N(Cc1ccc(-c2ccc(F)c(Cl)c2)s1)C(=O)c1ccc(Cl)cc1Cl` [Compound 111, 3-[[5-(3-CHLORO-4-FLUORO-PHENYL)-THIOPHEN-2-YLMETHYL]-(2,4-DICHLORO-BENZOYL)-AMINO]-5-PHENYL-THIOPHENE-2-CARBOXYLIC ACID], the IC50 was below 5 µM.

Turning to `O=C(O)c1sc(-c2ccccc2)cc1NC(=O)N1CCC2(CC1)C(=O)NCN2c1ccccc1` [Compound 112, 3-[(4-OXO-1-PHENYL-1,3,8-TRIAZA-SPIRO[4,5]DECANE-8-CARBONYL)-AMINO]-5-PHENYL-THIOPHENE-2-CARBOXYLIC ACID], the IC50 is below 5 µM.

Turning to `O=C(O)c1sc(-c2ccccc2)cc1NC(=O)N1CCC(n2c(=O)[nH]c3ccccc32)CC1` [Compound 113, 3-{[4-(2-OXO-2,3-DIHYDRO-BENZOIMIDAZOL-1-YL)-PIPERIDINE-1-CARBONYL]-AMINO]-5-PHENYL-THIOPHENE-2-CARBOXYLIC ACID], the IC50 is above 20 µM.
